Data published in patent US5707966A, “Antithrombotic agents” (Eli Lilly and Company, priority 1995, dated 1998).
Counter-ions that a name gives are not always drawn. Like-named read-outs stand apart in the source and are kept apart here.

Experiments:
Assay type in all cases: biochemical
[1] = target: T1, factor Xa (Homo sapiens, UniProt P00742); assay: Kass with factor Xa, chromogenic substrate; conditions: substrate N-Benzoyl-Ile-Glu-Gly-Arg-p-nitroanilide
T1 construct: Human factors X, Xa, IXa, XIa, and XIIa are purchased; purchased Enzyme Research Laboratories, South Bend, Ind
Method: (§1) By substantially following the procedures described above for human thrombin, and using other human blood coagulation system serine proteases and proteases of the fibrinolytic system with the appropriate chromogenic substrates, identified below, selectivity of the compounds of the present invention with respect to the coagulation factor serine proteases and with respect to the fibrinolytic system serine proteases are evaluated as well as their substantial lack of interference with serine proteases of the fibrinolytic system. Thrombin inhibitors preferably should spare fibrinolysis induced by urokinase, tissue plasminogen activator (t-PA) and streptokinase. This would be important to the therapeutic use of such agents as an adjunct to streptokinase, t-PA or urokinase thrombolytic therapy and to the use of such agents as an endogenous fibrinolysis-sparing (with respect to t-PA and urokinase) antithrombotic agent. In addition to the lack of interference with the amidase activity of the fibrinolytic proteases, such fibrinolytic system sparing can be studied by the use of human plasma clots and their lysis by the respective fibrinolytic plasminogen activators.
(§2) Human factors X, Xa, IXa, XIa, and XIIa are purchased from Enzyme Research Laboratories, South Bend, Ind.; human urokinase from Leo Pharmaceuticals, Denmark; and recombinant activated Protein C (aPC) is prepared at Eli Lilly and Co. substantially according to U.S. Patent No. 4,981,952. Chromogenic substrates: N-Benzoyl-Ile-Glu-Gly-Arg-p-nitroanilide (for factor Xa); N-Cbz-D-Arg-Gly-Arg-p-nitroanilide (for factor IXa assay as the factor Xa substrate); Pyroglutamyl-Pro-Arg-p-nitroanilide (for Factor XIa and for aPC); H-D-Pro-Phe-Arg-p-nitroanilide (for factor XIIa); and Pyroglutamyl-Gly-Arg-p-nitroanilide (for urokinase); are purchased from KabiVitrum, Stockholm, Sweden, or from Midwest Biotech, Fishers, Ind. Bovine trypsin is purchased from Worthington Biochemicals, Freehold, N.J., and human plasma kallikrein from Kabi Vitrum, Stockholm, Sweden. Chromogenic substrate H-D-Pro-Phe-Arg-p-nitroanilide for plasma kallikrein is purchased from Kabi Vitrum, Stockholm, Sweden. N-Benzoyl-Phe-Val-Arg-p-nitroanilide, the substrate for human thrombin and for trypsin, is synthesized according to procedures described above for the compounds of the present invention, using known methods of peptide coupling from commercially available reactants or purchased from Midwest Biotech, Fishers, Ind.

[2] = test system: Human plasma; assay: Human plasma anticoagulation, activated partial thromboplastin time (APTT); conditions: concentration required to double the APTT, linear extrapolation
Method: (§3) Dog plasma and rat plasma is obtained from conscious mixed-breed hounds (either sex, Hazelton-LRE, Kalamazoo, Mich., U.S.A.) or from anesthetized male Sprague-Dawley rats (Harlan Sprague-Dawley, Inc., Indianapolis, Ind., U.S.A.) by venipuncture into 3.8 percent citrate. Fibrinogen is prepared from in-date ACD human blood as the fraction I-2 according to previous procedures and specifications. […] Human fibrinogen is also purchased as 98 percent pure/plasmin free from American Diagnostica, Greenwich, Conn. Coagulation reagents ACTIN, Thromboplastin, and Human plasma are from Baxter Healthcare Corp., Dade Division, Miami, Fla. Bovine thrombin from Parke-Davis ([…], Mich.) is used for coagulation assays in plasma.
(§4) Coagulation assay procedures are as previously described. […] A CoAScreener coagulation instrument (American LABor, Inc.) is used for all coagulation assay measurements. The prothrombin time (PT) is measured by adding 0.05 mL saline and 0.05 mL Thromboplastin-C reagent to 0.05 mL test plasma. The activated partial thromboplastin time (APTT) is measured by incubation of 0.05 mL test plasma with 0.05 mL Actin reagent for 120 seconds followed by 0.05 mL CaCl2 (0.02M). The thrombin time (TT) is measured by adding 0.05 mL saline and 0.05 mL thrombin (10 NIH units/mL) to 0.05 mL test plasma. The compounds of Formula I are added to human or animal plasma over a wide range of concentrations to determine prolongation effects on the APTT, PT, and TT assays. Linear extrapolations are performed to estimate the concentrations required to double the clotting time for each assay.

[3] = target: Human Thrombin (Homo sapiens, UniProt P00734); assay: Inhibition of amidase activity of thrombin (Kass)
[4] = test system: Human plasma; assay: Human plasma anticoagulation, prothrombin time (PT); conditions: concentration required to double the PT, linear extrapolation
Method: as §3, §4

[5] = test system: Human plasma; assay: Human plasma anticoagulation, thrombin time (TT); conditions: concentration required to double the thrombin time, linear extrapolation
Method: as §3, §4

[6] = target: T2, Bovine trypsin (Bos taurus, UniProt P00760); assay: Kass with trypsin, chromogenic substrate; conditions: substrate N-Benzoyl-Phe-Val-Arg-p-nitroanilide
T2 construct: Bovine trypsin is purchased; purchased Worthington Biochemicals, Freehold, N.J
T2 sequence (P00760 24-246): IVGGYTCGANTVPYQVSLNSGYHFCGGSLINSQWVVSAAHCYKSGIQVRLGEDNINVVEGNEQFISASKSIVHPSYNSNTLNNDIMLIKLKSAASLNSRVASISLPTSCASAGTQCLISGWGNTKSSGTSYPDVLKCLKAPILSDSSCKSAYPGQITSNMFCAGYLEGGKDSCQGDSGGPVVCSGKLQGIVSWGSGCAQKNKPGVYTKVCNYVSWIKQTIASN
Method: as §1, §2

[7] = mean over a range of concentrations, […]

T1 sequence (P00742 235-488 limits assumed): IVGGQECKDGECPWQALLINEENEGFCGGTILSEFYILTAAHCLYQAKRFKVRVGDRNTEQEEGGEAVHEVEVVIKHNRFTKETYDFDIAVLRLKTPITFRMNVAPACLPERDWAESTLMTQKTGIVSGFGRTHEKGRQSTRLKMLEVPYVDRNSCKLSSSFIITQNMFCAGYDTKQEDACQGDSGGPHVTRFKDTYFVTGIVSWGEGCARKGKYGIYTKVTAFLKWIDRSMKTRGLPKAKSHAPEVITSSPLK
T1 sequence (P00742 41-179 partner limits assumed): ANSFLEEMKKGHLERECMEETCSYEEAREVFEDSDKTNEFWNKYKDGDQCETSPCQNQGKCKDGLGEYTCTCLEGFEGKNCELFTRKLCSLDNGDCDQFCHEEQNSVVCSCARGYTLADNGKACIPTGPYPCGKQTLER

Molecule | Kass Xa [1] | Human Plasma Anticoagulation 2× Clotting time APTT [2] | Kass Human Thrombin [3, 7] | Human Plasma Anticoagulation 2× Clotting time PT [4] | Human Plasma Anticoagulation 2× Clotting time TT [5] | Kass Human Thrombin [3] | Kass Trypsin [6]
Nc1ccc(CNC(=O)[C@@H]2CCCN2C(=O)[C@@H](CC2CCCCC2)NCC(=O)O)c(F)c1 [Example 64, HO2 CCH2 -D-Cha-Pro-4-NHCH2 -3-F-C6 H3 NH2.HCl] | 0.01 × 10^6 (L/mole) | 900 ng/mL | 15 × 10^6 (L/mole) | 650 ng/mL | 23 ng/mL |  | 
NCc1ccc(CNC(=O)[C@@H]2CCCN2C(=O)[C@@H](CC2CCCCC2)NCC(=O)O)cc1 [Example 78, HO2 CCH2 -D-Cha-pro-4-NHCH2 C6 H4 CH2 NH2.HCl] |  | 430 ng/mL |  | 760 ng/mL | 46 ng/mL | 11 | 8.6 × 10^6 (L/mole)
NCC1CCC(CNC(=O)[C@@H]2CCCN2C(=O)[C@@H](CC2CCCCC2)NCC(=O)O)CC1 (stereo partly drawn) [Example 79, HO2 CCH2 -D-Cha-Pro-4-NHCH2 C6 H10 CH2 NH2.HCl] |  | 1,700 ng/mL | 2.0 × 10^6 (L/mole) | 2,400 ng/mL | 140 ng/mL |  | 0.24 × 10^6 (L/mole)
CCS(=O)(=O)N[C@H](CC1CCCCC1)C(=O)N1CCC[C@H]1C(=O)NCc1ccc(C(=N)N)cc1.Cl [Example 80, EtSO2 -D-Cha-Pro-4-NHCH2 C6 H4 C(NH)NH2.HCl] |  | 40 ng/mL | 1,700 × 10^6 (L/mole) | 130 ng/mL | 4 ng/mL |  | 90 × 10^6 (L/mole)
CCS(=O)(=O)N[C@H](CC1CCCCC1)C(=O)N1CCC[C@H]1C(=O)NCc1ccc(CN)cc1 [Example 81, EtSO2 -D-Cha-Pro-4-NHCH2 C6 H4 CH2 NH2.HCl] |  | 1,500 ng/mL | 5.3 × 10^6 (L/mole) | 2,700 ng/mL | 110 ng/mL |  | 2.1 × 10^6 (L/mole)
CCS(=O)(=O)N[C@H](CC1CCCCC1)C(=O)N1CCC[C@H]1C(=O)NCc1ccnc(N)c1 [Example 83, EtSO2 -D-Cha-Pro-4-NHCH2 -2-aminopyridine.HCl] |  | 1,000 ng/mL | 2.4 × 10^6 (L/mole) | 1,300 ng/mL | 91 ng/mL |  | 0.03 × 10^6 (L/mole)
CCS(=O)(=O)N[C@H](CC1CCCCC1)C(=O)N1CCC[C@H]1C(=O)NCc1ccc(N)nc1 [Example 84, EtSO2 -D-Cha-Pro-5-NHCH2 -2-aminopyridine.HCl] |  | 1,500 ng/mL | 2.9 × 10^6 (L/mole) | 1,900 ng/mL | 110 ng/mL |  | 0.07 × 10^6 (L/mole)
N=C(N)c1ccc(CNC(=O)[C@@H]2CCCN2C(=O)[C@@H](CC2CCCCC2)NCCCC(=O)O)cc1 [Example 85, HOOCCH2 CH2 CH2 -D-Cha-pro-p-NHCH2 C6 H4 C(NH)NH2.HCl] |  | 100 ng/mL | 265 × 10^6 (L/mole) | 197 ng/mL | 4.9 ng/mL |  | 30.8 × 10^6 (L/mole)
N=C(N)c1ccc(CNC(=O)[C@@H]2CCCN2C(=O)[C@H](NCC(=O)O)C2CCCCC2)cc1 [Example 86, HOOCCH2 -D-Chg-Pro-p-NHCH2 C6 H4 C(NH)NH2.HCl] | 0.63 × 10^6 (L/mole) | 81 ng/mL |  | 180 ng/mL | 4 ng/mL | 200 | 
N=C(N)c1ccc(CNC(=O)[C@@H]2CCCN2C(=O)[C@@H](CCC2CCCCC2)NCC(=O)O)cc1 [Example 88, HOOCCH2 -D-hCha-Pro-p-NHCH2 C6 H4 C(NH)NH2.HCl] | 3.9 × 10^6 (L/mole) | 100 ng/mL | 410 × 10^6 (L/mole) | 200 ng/mL | 4 ng/mL |  | 
N=C(N)c1ccc(CNC(=O)CN(CCc2ccccc2)C(=O)CNCC(=O)O)cc1 [Example 89, HOOCCH2 -Gly-N-C6 H5 CH2 CH2 Gly-p-NHCH2 C6 H4 C(NH)NH2.HCl] | 0.071 × 10^6 (L/mole) | 51,000 ng/mL | 0.14 × 10^6 (L/mole) | 37,000 ng/mL | 570 ng/mL |  | 
CCC(CC)C(=O)N[C@@H](CCC(=O)O)C(=O)N1CCC[C@H]1C(=O)NCc1ccc(C(=N)N)cc1 [Example 90, (C2 H5)2 CHCO-Glu-Pro-p-NHCH2 C6 H4 C(NH)NH2.HCl] | 0.002 × 10^6 (L/mole) | 14,500 ng/mL | 0.61 × 10^6 (L/mole) | 14,600 ng/mL | 330 ng/mL |  | 
CCC(CC)C(=O)N[C@@H](CCS(C)(=O)=O)C(=O)N1CCC[C@H]1C(=O)NCc1ccc(C(=N)N)cc1 [Example 91, (C2 H5)2 CHCO-Met(O2)-pro-p-NHCH2 C6 H4 C(NH)NH2.HCl] | 0.007 × 10^6 (L/mole) | 3,000 ng/mL | 3.6 × 10^6 (L/mole) | 3,500 ng/mL | 63 ng/mL |  | 
CS(=O)(=O)CC(=O)N[C@H](CC1CCCCC1)C(=O)N1CCC[C@H]1C(=O)NCc1ccc(C(=N)N)cc1 [Example 92, MeSO2 CH2 CO-D-Cha-Pro-p-NHCH2 C6 H4 C(NH)NH2.HCl] |  | 210 ng/mL | 130 × 10^6 (L/mole) | 340 ng/mL | 8.9 ng/mL |  | 7.7 × 10^6 (L/mole)
HOOCCH2 -D-hPhe-Pro-p-NHCH2 C6 H4 C(NH)NH2.HCl [Example 87] | 2.5 × 10^6 (L/mole) | 260 ng/mL | 30 × 10^6 (L/mole) | 310 ng/mL | 9 ng/mL |  | 
